Experimental data taken from US9315531B2, “Titanocene-gold derivatives comprising thiolato ligands” (Research Foundation of the City University of New York, priority 2014, dated 2016).

Columns and labels:
[1] = tested on: Caki-1 renal carcinoma; test: Caki-1 xenografts in mice, tumor growth
Method: Study of the effects of 2 in Caki-1 xenografts in mice: twelve female NOD.CB17-Prkdc scid/J (non-obese diabetic—severe combined immunodeficiency) from Jackson Laboratory (Bar Harbor, Me. and Sacramento, Calif., USA) were used for the xenograft experiment (ages 8 to 12 weeks and weighing 19-22 g) were used. Each mouse received 8×10^6 tumor cells subcutaneously without anesthesia. Exponentially growing Caki-1 human kidney cancer cells were suspended in 1:1 ratio 50 μl phosphate-buffered saline (PBS; pH 7.4) plus 50 μl of matrigel (BD Biosciences, San Jose, Calif., USA) were injected subcutaneously on both left and right flank of each mice. The diameter of the tumors was measured once weekly using an electronic digital caliper and the tumor volume (TV) was calculated according to the empirical equation TV=(a)(b^2)×π/6 where a=longest dimension; b=largest dimension orthogonal to a. The median volumes of each group were normalized to the initial tumor volume resulting in the relative tumor volume. […] Treatment started when tumors were palpable (about 6 mm diameter). Mice were randomized to treatment groups based on their starting tumor burden at twelve weeks of age to ensure equivalent distribution between the three groups. At trial end-point the mice were sacrificed and tumors measured again after excision and then processed for further analysis. Histological as well as biochemical evaluations of blood, liver, spleen, and kidney, were conducted.

[2] = tested on: Caki-1; test: Cell viability assay (XTT), Caki-1; type: cell-based, human; details: 72 h incubation
Excerpt: Cell Culture: Human renal cell carcinoma lines A498, Caki-1 and UO31, as well as the human prostate carcinoma cell lines DU145 and PC3 were newly obtained for these studies from the American Type Culture Collection (ATCC) (Manassas, Va., USA) and cultured in Roswell Park Memorial Institute (RPMI-1640) (Mediatech Inc., Manassas, Va.) media containing 10% fetal bovine serum (FBS, Life Technologies, Grand Island, N.Y.), 1% Minimum Essential Media (MEM) nonessential amino acids (NEAA, Mediatech) and 1% penicillin-streptomycin (PenStrep, Mediatech). HEK-293T cells were newly purchased from ATCC (Manassas, Va., USA) and maintained in Dulbecco's modified Eagle's medium (DMEM) (Mediatech) supplemented with 10% FBS, 1% NEAA and 1% PenStrep. Normal human renal epithelial cells (RPTC) were purchased from Lifeline Cell Technology (Lifeline Cell Technology, Frederick, Md., USA) and maintained in Lifeline's Renal Life Medium from Lifeline Cell Technology supplemented with 2.4 mM L-glutamine, 5 μg/mL rh insulin, 1.0 nM epinephrine, 10 nM triiodothyronine, 0.1 μg/mL hydrocortisone hemisuccinate, 10 ng/mL rhEGF, 0.50% FBS, 5 μg/mL transferrin PS. All cells were cultured at 37° C. and 5% CO2 in a humidified incubator.
The optical absorbance of each well in a 96-well plate was quantified using BioTek ELx808 absorbance microplate reader (BioTek Winooski, Vt.) set at 450 nm wavelength. The percentage of surviving cells was calculated from the ratio of absorbance of treated to untreated cells.

[3] = tested on: HEK-293T; test: Cell viability assay (XTT), HEK-293T; type: cell-based; details: 72 h incubation; non-tumorigenic human embryonic kidney cell line
Method: HEK-293T cells were newly purchased from ATCC (Manassas, Va., USA) and maintained in Dulbecco's modified Eagle's medium (DMEM) (Mediatech) supplemented with 10% FBS, 1% NEAA and 1% PenStrep. […] All cells were cultured at 37° C. and 5% CO2 in a humidified incubator.

[4] = tested on: UO31; test: Cell viability assay (XTT), UO31; type: cell-based, human; details: 72 h
Excerpt: Cell Culture: Human renal cell carcinoma lines A498, Caki-1 and UO31, as well as the human prostate carcinoma cell lines DU145 and PC3 were newly obtained for these studies from the American Type Culture Collection (ATCC) (Manassas, Va., USA) and cultured in Roswell Park Memorial Institute (RPMI-1640) (Mediatech Inc., Manassas, Va.) media containing 10% fetal bovine serum (FBS, Life Technologies, Grand Island, N.Y.), 1% Minimum Essential Media (MEM) nonessential amino acids (NEAA, Mediatech) and 1% penicillin-streptomycin (PenStrep, Mediatech). HEK-293T cells were newly purchased from ATCC (Manassas, Va., USA) and maintained in Dulbecco's modified Eagle's medium (DMEM) (Mediatech) supplemented with 10% FBS, 1% NEAA and 1% PenStrep. […]
Cell Viability Assay: Cells were seeded at a concentration of 5000 cells/90 μl per well of either RPMI or DMEM without phenol red and without antibiotics, supplemented with 10% FBS and 2 mM L-glutamine into tissue culture grade 96-well flat bottom microplates (BioLite Microwell Plate, Fisher Scientific, Waltham, Mass., USA) and grown for 24 h at 37° C. in a humidified incubator. […] The optical absorbance of each well in a 96-well plate was quantified using BioTek ELx808 absorbance microplate reader (BioTek Winooski, Vt.) set at 450 nm wavelength. The percentage of surviving cells was calculated from the ratio of absorbance of treated to untreated cells.

[5] = Solubility in DMSO/aqueous mixtures; type: physicochemical; details: at micromolar concentrations
Excerpt: Both compound 2 and compound 3 were less acidic than titanocene dichloride and were soluble in DMSO/water, DMSO/PBS and DMSO/media (1:99) mixtures at micromolar concentrations. These compounds were unusually stable methyl-containing titanocene moieties that were stable as solids at room temperature, while exposed to air in CDCl3 solution for at least five days.

[6] = tested on: p90-RSK; test: Protein kinase expression in Caki-1 whole cell lysates, p90-RSK; type: cell-based, human; details: Caki-1, 5 μM, by 12 hours post-treatment
Method: (§1) Whole cell lysates of Caki-1 cells treated with compounds 2 or 6 were also evaluated for their effects on the expression levels of selected protein kinases, namely p90-RSK, AKT and MAPKAPK3. […] Because all three enzymes have been implicated in promoting cell migration and therefore are strong targets for anti-metastasis drugs, these findings predict that compound 2 would be effective in controlling metastatic potential of renal tumors.
(§2) Cell lysis and immunoblotting: Caki-1 cells were seeded into 10-cm dishes at a density of 2.2×10^6 and incubated for 24 hours. […]
(§3) The protein concentration was determined with BCA protein dye reagent (Pierce, Fisher Scientific Pittsburgh, Pa.). Samples were denatured with 5×SDS sample buffer (0.25% bromophenol blue, 0.5 M dithiothreitol (DTT), 50% glycerol 50% (v/v), 10% sodium dodecyl sulfate (SDS) followed by heating at 95° C. for 5 minutes. Proteins were separated by SDS-PAGE, transferred to a PVDF membrane (Millipore Corp.), and probed with MAPKAPK-3 antibody (Cell Signaling Technology, Danvers, Mass., USA), as well as β-actin antibody (Cell Signaling Technology, Danvers, Mass., USA). Immunoreactive bands of primary antibodies were detected using HRP goat anti-rabbit and secondary antibodies were detected with peroxidase-conjugated secondary antibody and detected by chemiluminescence (Pierce Biotechnology, Rockford, Ill.).

[7] = tested on: AKT; test: Protein kinase expression in Caki-1 whole cell lysates, AKT; type: cell-based, human; details: Caki-1, 5 μM, by 12 hours post-treatment
Method: as §1, §2, §3

[8] = tested on: MAPKAPK3; test: Protein kinase expression in Caki-1 whole cell lysates (Western blot), MAPKAPK3; type: cell-based, human; details: Caki-1, by 12 hours post-treatment
Method: The Caki-1 cells were then lysed and a Western blot analysis was performed with anti-MAPKAPK-3 antibody. Blots were probed with anti-β-Actin antibody as a control for protein loading.
Cell lysis and immunoblotting: Caki-1 cells were seeded into 10-cm dishes at a density of 2.2×10^6 and incubated for 24 hours. […] After microcentrifuging for 5 minutes at 4° C., pellets were treated with ice-cold lysis buffer with cell extraction buffer (BioSource, Camarillo, Calif.) containing 0.1% protease inhibitors and 1% phosphatase inhibitors cocktail (Fisher Scientific, Pittsburgh, Pa.) for 10 minutes, then sonicated for 10 seconds three times, and placed on ice. The lysed cells were centrifuged at 10,000×g at 4° C. for 10 minutes to remove the pellets representing the insoluble cell fraction.
The protein concentration was determined with BCA protein dye reagent (Pierce, Fisher Scientific Pittsburgh, Pa.). […]

Substance: [(η-C5H5)2TiMe(μ-mba)Au(PPh3)] [Compound 2]
- decrease in tumor size (shrinkage) from the starting volume ([1]; between day 1 and day 28 of treatment, total of 14 doses): 67%
- Primary Tumor ([1]; tumor measured on day 28, after 14th dose, every other day dosing (compound 6 […], compound 2 3 mg/kg)): 41.33 ± 13.00 mm^3
- weight loss in treated mice ([1]; xenograft protocol, 14 doses every other day): no weight loss
- IC50 [2]: 120 ± 3 nM
- IC50 [3]: 490 ± 0.8 nM
- IC50 UO31 [4]: nanomolar range
- solubility in DMSO/water, DMSO/PBS and DMSO/media (1:99) mixtures [5]: soluble
- expression of p90-RSK [6]: dramatic decreases in expression
- expression of AKT [7]: dramatic decreases in expression
- expression of MAPKAPK3 [8]: dramatic decreases in expression
